Assay results taken from patent publication US20140335396A1, “Microporous Membrane” (ASAHI KASEI E-MATERIALS CORPORATION, priority 2011, published 2014).

Test: Solubility in water of the surfactant
Type: physicochemical
Conditions: water at 25° C.
Description: As long as the above-described surfactant adhered to a base membrane includes at least a surfactant (A) soluble in water and a surfactant (B) insoluble in water, the above-described surfactant adhered to a base membrane may also include another surfactant (i.e., a surfactant having a solubility in water of 0.1 g based on 100 g of water to 5 g based on 100 g of water.)
(7) Solubility in Water (g Per 100 g of Water)
Aliquots, each of which is 0.01 g of a surfactant, were added one by one to 100 g of water at 25° C. while stirring. The total amount of the surfactant added (g) when the solution changed from clear to opaque was taken as the degree of the solubility in water

Molecule	Solubility in water
polyoxyethylene alkyl ether	≥ 5 g per 100 g of water
CCCCCCCC/C=C/CCCCCCCC1=NCCN1CCO [oleyl imidazoline]	≤ 0.1 g per 100 g of water
